Measured values reported in patent US6514959B2 (priority 1994, dated 2003).

Test system: Plasmopara viticola
Assay: Action against Plasmopara viticola on vines (preventive leaf spray, Colby evaluation)
Type: in vivo
Details: for O Observed action: evaluation after 7 days
Description: Fungicides have a synergistic effect whenever the fungicidal action of the active ingredient combination is greater than the sum of the actions of the active ingredients when applied individually.
The action E to be expected for a given active ingredient combination, for example of two fungicides, obeys the so-called COLBY formula and can be calculated as follows (COLBY, L. R. “Calculating synergistic and antagonistic responses of herbicide combinations”. Weeds 15, pages 20-22, 1967) (LIMPEL et al., […] “Weeds control by . . . certain combinations”. Proc. NEWCL, Vol. 16, pp. 48-53):
(mg a.i./liter=milligrams of active ingredient per liter or a multiple thereof) X=% action by fungicide I at p mg a.i./liter
Y=% action by fungicide II at q mg a.i./liter
E=the expected action of fungicides I+II at a rate of application of p+q mg a.i./liter (additive action), then according to Colby: [formula]
If the action (O) actually observed is greater than the expected action, then the action of the combination is superadditive, i.e. there is a synergistic effect.
1) Action Against Plasmopara viticola on Vines
Small vine plants of the variety “Gutedel” are each grown in a plant-pot (diameter=6 cm) under greenhouse conditions and are sprayed in the two-leaf stage with an active ingredient mixture prepared from an emulsifiable concentrate. The following concentrations of active ingredient are each applied to four plants: […]
metalaxyl racemate: 2 mg and 6 mg a.i./liter;
R-metalaxyl (100%): 0.06 mg and 0.6 mg a.i./liter; mancozeb: 2 mg and 6 mg a.i./liter.
These dilutions are prepared in demineralised water immediately before the leaves are sprayed. In order to eliminate the effect of the gas phase of the metalaxyl in the vicinity, all the plants are separated from one another laterally by means of transparent plastics films and are kept in the dark for one day at 20-22° C. and about 100% relative humidity.
The entire surface of the leaves of the plants is then uniformly sprayed to drip point with a freshly prepared sporangia suspension (120 000/ml) of a strain of Plasmopara viticola that is sensitive to metalaxyl. The plants are then kept at 20-22° C. and about 100% relative humidity for 7 days under artificial daylight of 16 hours' duration. Evaluation of the infestation is then carried out. The Tables show in each case the average of four parallel sprayings. The expected action in the case of mixtures is calculated according to COLBY.
Level of action of racemic metalaxyl and R-metalaxyl in admixture with residual component mancozeb

[1] = single active ingredient 2 mg a.i./l, vines Gutedel, infection 1 day after spraying, average of four
[2] = single active ingredient 6 mg a.i./l, vines

Molecule	O Observed action [1] [%]	O Observed action [2] [%]	improvement of action when the R-enantiomer is used instead of racemic metalaxyl (in admixture with 2 mg or 6 mg of mancozeb, 0.06 mg R-metalaxyl corresponds to 2 mg racemic metalaxyl)	O Observed action (single active ingredient 0.06 mg a.i./l, vines) [%]	O Observed action (single active ingredient 0.6 mg a.i./l, vines) [%]
COCC(=O)N(c1c(C)cccc1C)C(C)C(=O)OC (stereo not shown) [Metalaxyl, metalaxyl]	12	24			
mancozeb	0	20			
COCC(=O)N(c1c(C)cccc1C)[C@H](C)C(=O)OC (single isomer, unassigned) [R-enantiomer of metalaxyl, R-metalaxyl]			about 30 fold	12	18
